In US20070004653A1, “Stable lyophilized anthracycline glycosides” (priority 2005, published 2007):

Columns and labels:
[1] = cited from earlier work
[2] = Stability tests of stabilized Idarubicin HCl, 1% w/v aqueous solution with NH4OAc or NH4OAc + AcOH; type: physicochemical
Description: Starting product was idarubicin hydrochloride, 1% w/v aqueous solution, the analysis of which is shown in the data reported at t=0. 3% mol of NH4OAc with respect to idarubicin hydrochloride was added to the solution at t=0 and the solution was incubated at 4° C. for the indicated time.
Starting product was idarubicin hydrochloride, 1% w/v aqueous solution, the analysis of which is shown in the data reported at t=0. 3% mol of NH4OAc with respect to idarubicin hydrochloride was added to the solution at t=0 and the solution was incubated at 20° C. for the indicated time.
(§1) Starting product was idarubicin hydrochloride, 1% w/v aqueous solution, the analysis of which is shown in the data reported at t=0. 1% mol of NH4OAc with respect to idarubicin hydrochloride was added to the solution at t=0 and the solution was incubated at 4° C. for the indicated time.
(§2) Starting product was idarubicin hydrochloride, 1% w/v aqueous solution, the analysis of which is shown in the data reported at t=0. 1% mol of NH4OAc with respect to idarubicin hydrochloride was added to the solution at t=0 and the solution was incubated at 20° C. for the indicated time.
as §1, with “t=0. 0.5%” for “t=0. 1%”, “NH4OAc and 0.5% mol of AcOH” for “NH4OAc”, “hydrochloride were” for “hydrochloride was”
as §2, with “t=0. 0.5%” for “t=0. 1%”, “NH4OAc and 0.5% mol of AcOH” for “NH4OAc”, “hydrochloride were” for “hydrochloride was”, “indicated time as shown in table 30.” for “indicated time.”
as §1, with “t=0. 1.5%” for “t=0. 1%”, “NH4OAc and 1.5% mol of AcOH” for “NH4OAc”, “hydrochloride were” for “hydrochloride was”
as §2, with “t=0. 1.5%” for “t=0. 1%”, “NH4OAc and 1.5% mol of AcOH” for “NH4OAc”, “hydrochloride were” for “hydrochloride was”

[3] = NH4OAc 0.5% mol + AcOH 0.5% mol, pH 5.08, 4° C., 25 hr
[4] = NH4OAc 0.5% mol + AcOH 0.5% mol, pH 5.08, 4° C., 95 hr
[5] = NH4OAc 0.5% mol + AcOH 0.5% mol, pH 5.08, 20° C., 19 hr
[6] = NH4OAc 0.5% mol + AcOH 0.5% mol, pH 5.08, 20° C., 90 hr
[7] = NH4OAc 1% mol, pH 5.92, 4° C., 24 hr
[8] = NH4OAc 1% mol, pH 5.92, 20° C., 18 hr
[9] = NH4OAc 1% mol, pH 5.92, 20° C., 313 hr
[10] = NH4OAc 1.5% mol + AcOH 1.5% mol, pH 4.94, 4° C., 314 hr
[11] = NH4OAc 1.5% mol + AcOH 1.5% mol, pH 4.94, 20° C., 21 hr
[12] = NH4OAc 1.5% mol + AcOH 1.5% mol, pH 4.94, 20° C., 68 hr
[13] = NH4OAc 1.5% mol + AcOH 1.5% mol, pH 4.94, 20° C., 139 hr
[14] = NH4OAc 1.5% mol + AcOH 1.5% mol, pH 4.94, 20° C., 315 hr
[15] = NH4OAc 3% mol, pH 5.94, 4° C., 30 hr
[16] = NH4OAc 3% mol, pH 5.94, 4° C., 131 hr
[17] = NH4OAc 3% mol, pH 5.94, 20° C., 26 hr
[18] = NH4OAc 3% mol, pH 5.94, 20° C., 130 hr

## CC(=O)[C@]1(O)Cc2c(O)c3c(c(O)c2[C@@H](O[C@H]2C[C@@H](N)[C@H](O)C(C)O2)C1)C(=O)c1ccccc1C3=O.Cl (stereo partly shown) [Idarubicin HCl, Idarubicin hydrochloride]
[1]
  pH in a 0.5% w/v solution in water: 5.0-6.5
[2]; [3]
  aglycone: 0.59%
  bis-anhydro: 0.04%
[2]; [4]
  aglycone: 0.59%
  bis-anhydro: 0.05%
[2]; NH4OAc 0.5% mol + AcOH 0.5% mol, pH 5.08, 4° C., t = 0
  aglycone: 0.59%
[2]; [5]
  aglycone: 0.59%
  bis-anhydro: 0.07%
[2]; [6]
  aglycone: 0.59%
  bis-anhydro: 0.18%
[2]; NH4OAc 0.5% mol + AcOH 0.5% mol, pH 5.08, 20° C., t = 0
  aglycone: 0.59%
[2]; [7]
  % aglycone: 0.59%
  % bis-anhydro: 0.05%
[2]; NH4OAc 1% mol, pH 5.92, 4° C., t = 0
  % aglycone: 0.59%
[2]; [8]
  % aglycone: 0.59%
  % bis-anhydro: 0.20%
[2]; [9]
  % aglycone: 0.60%
  % bis-anhydro: 4.46%
[2]; NH4OAc 1% mol, pH 5.92, 20° C., t = 0
  % aglycone: 0.59%
[2]; NH4OAc 1.5% mol + AcOH 1.5% mol, pH 4.94, 4° C., 26 hr
  aglycone: 0.59%
[2]; NH4OAc 1.5% mol + AcOH 1.5% mol, pH 4.94, 4° C., 97 hr
  aglycone: 0.59%
[2]; [10]
  aglycone: 0.59%
  bis-anhydro: 0.06%
[2]; NH4OAc 1.5% mol + AcOH 1.5% mol, pH 4.94, 4° C., t = 0
  aglycone: 0.59%
[2]; [11]
  aglycone: 0.59%
  bis-anhydro: 0.06%
[2]; [12]
  aglycone: 0.59%
  bis-anhydro: 0.16%
[2]; [13]
  aglycone: 0.59%
  bis-anhydro: 0.75%
[2]; [14]
  aglycone: 0.6%
  bis-anhydro: 6.21%
[2]; NH4OAc 1.5% mol + AcOH 1.5% mol, pH 4.94, 20° C., t = 0
  aglycone: 0.59%
[2]; [15]
  % aglycone: 0.59%
  % bis-anhydro: 0.09%
[2]; [16]
  % aglycone: 0.59%
  % bis-anhydro: 0.25%
[2]; NH4OAc 3% mol, pH 5.94, 4° C., t = 0
  % aglycone: 0.59%
[2]; [17]
  % aglycone: 0.59%
  % bis-anhydro: 0.50%
[2]; [18]
  % aglycone: 0.59%
  % bis-anhydro: 1.39%
[2]; NH4OAc 3% mol, pH 5.94, 20° C., t = 0
  % aglycone: 0.59%
